Laboratory results reported in patent US6875578B2, “System for cell-based screening” (priority 1997, dated 2005).
“Also recorded” adds a separate entry of the source.

Columns and labels:
caspase-3 [1] = assay: Caspase-3 biosensor apoptosis assay, MCF-7 cells; type: cell-based; conditions: MCF-7 cells transfected with the caspase 3 biosensor
Description: (§1) For DNA transfection, BHK cells and MCF-7 cells were cultured to 50-70% confluence in 6 well plates containing 3 ml of minimal Eagle's medium (MEM) with 10% fetal calf serum, 1 mM L-glutamine, 50 μg/ml streptomycin, 50 μg/ml penicillin, 0.1 mM non-essential amino acids, 1 mM sodium pyruvate and 10 μg/ml of bovine insulin (for MCF-7 cell only) at 37° C. in a 5% CO2 incubator for about 36 hours. The cells were washed with serum free MEM media and incubated for 5 hours with 1 ml of transfection mixture containing 1 μg of the appropriate plasmid and 4 μg of lipofectimine (BRL) in the serum free MEM media. Subsequently, the transfection medium was removed and replaced with 3 ml of normal culture media. The transfected cells were maintained in growth medium for at least 16 hours before performing selection of the stable cells based on standard molecular biology methods (Ausubel. et al 1995).
For apoptosis assays, the cells (BHK, MCF-7) stably transfected with the appropriate protease biosensor expression vector were plated on tissue culture treated 96-well plates at 50-60% confluence and cultured overnight at 37° C., 5% CO2. Varying concentrations of cis-platin, staurosporine, or paclitaxel in normal culture media were freshly prepared from stock and added to cell culture dishes to replace the old culture media. The cells were then observed with the cell screening system of the present invention at the indicated time points either as live cell experiments or as fixed end-point experiments.
This biosensor is restricted to the cytoplasm by the reactant target sequence. The reactant target sequence is the annexin II cytoskeletal binding domain ([…]) (SEQ ID NO:124) (FIG. 29C) (Eberhard et al. 1997. Mol. Biol. Cell 8:293a). The enzyme recognition site corresponds to two copies of the amino acid sequence DEVD (SEQ ID NO:60) (FIG. 29B), which serves as the recognition site of caspase-3. […]
(§2) The biosensor response is measured by quantitating the effective cytoplasm-to-nuclear translocation of the signal (see above). […]

L929 cells [2] = assay: Apoptosis nuclear morphology, L929 cells; type: cell-based, mouse; conditions: 30 hours
Description: (§3) Cells were plated into 96-well plates at densities of 3×10^3 to 1×10^4 cells/well. The following day apoptotic inducers were added at indicated concentrations and cells were incubated for indicated time periods (usually 16-30 hours). The next day medium was removed and cells were stained with 5 μg/ml Hoechst (Molecular Probes, Inc.) in fresh medium and incubated for 30 minutes at 37° C. Cells were washed in Hank's Balanced Salt Solution (HBSS) and fixed with 3.7% formaldehyde in HBSS at room temperature. Cells were washed 2×with HBSS at room temperature and the plate was sealed.
(§4) Quantitation of changes in nuclear morphology upon induction of apoptosis was accomplished by (1) measuring the effective size of the nuclear region; and (2) measuring the degree of convolution of the perimeter.

MCF-7 cells = assay: Apoptosis actin reorganization (f-actin content), MCF-7 cells; type: cell-based; conditions: 30 hours
Description: (§5) Cells were plated in 96-well plates at densities of 3×10^3 to 1×10^4 cells/well. The following day apoptotic inducers were added at indicated concentrations. Cells were incubated for the indicated time periods (usually 16-30 hours). The next day the medium was removed and cells were stained with 5 μg/ml Hoechst (Molecular Probes, Inc.) in fresh medium and incubated for 30 minutes at […]. Cells were washed in HBSS and fixed with 3.7% formaldehyde in HBSS at room temperature. Plates were washed with HBSS and permeabilized with 0.5% v/v Triton X-100 in HBSS at room temperature. Plates were washed in HBSS and stained with 100 μl of 1 U/ml of Alexa 488 Phalloidin stock (100 μl/well, Molecular Probes, Inc.). Cells were washed 2×with HBSS at RT and the plate was sealed.
(§6) Quantitation of f-actin content was accomplished by measuring the intensity of phalloidin staining around the nucleus. This was determined to be a reasonable approximation of a full cytoplasmic average of the intensity. The mask used to approximate this cytoplasmic measure was derived from the nuclear mask defined by the Hoechst stain. Derivation was accomplished by combinations of erosions and dilations.

L929 cells [3] = assay: Apoptosis actin reorganization (f-actin content), L929 cells; type: cell-based, mouse; conditions: 30 hours
Description: as §5, §6

caspase-3 [4] = assay: Caspase-3 biosensor apoptosis assay, BHK cells; type: cell-based; conditions: BHK cells transfected with the caspase 3 biosensor
Description: as §1
For apoptosis assays, the cells (BHK, MCF-7) stably transfected with the appropriate protease biosensor expression vector were plated on tissue culture treated 96-well plates at 50-60% confluence and cultured overnight at 37° C., 5% CO2. […]
as §2

BHK cells [5] = assay: Apoptosis mitochondrial mass/potential, BHK cells; type: cell-based; conditions: 30 hours
Description: Cells were plated into 96-well plates at densities of 3×10^3 to 1×10^4 cells/well. The following day apoptotic inducers were added at the indicated concentrations and cells were incubated for the indicated time periods (usually 16-30 hours). Cells were stained with 5 μg/ml Hoechst (Molecular Probes, Inc.) and 750 nM MITOTRACKER™ Red (CMXRos, Molecular Probes, Inc.) in fresh medium and incubated for 30 minutes at 37° C. Cells were washed in HBSS and fixed with 3.7% formaldehyde in HBSS at room temperature. Plates were washed with HBSS and permeabilized with 0.5% v/v TRITON™ X-100 in HBSS at room temperature. Cells were washed 2× with HBSS at room temperature and the plate was sealed. For dual labeling of mitochondria, cells were treated with 200 nM MITOTRACKER™ Green and 200 nM MITOTRACKER™ Red for 0.5 hours before fixation.
The mitochondrial membrane potential is measured by labeling mitochondria with both MITOTRACKER™ Green FM and MITOTRACKER™ Red (Molecular Probes, mc). MITOTRACKER™ Red labeling is proportional to both mass and membrane potential. MITOTRACKER™ Green FM labeling is proportional to mass. The ratio of MITOTRACKER™ Red signal to the MITOTRACKER™ Green FM signal provides a measure of mitochondrial membrane potential (Poot and Pierce, 1999). This ratio normalizes the […]. […]

BHK cells [6] = assay: Apoptosis nuclear morphology, BHK cells; type: cell-based; conditions: 30 hours
Description: as §3, §4

**Q.** For `CC(=O)O[C@H]1C(=O)[C@@]2(C)[C@H]([C@H](OC(=O)c3ccccc3)[C@]3(O)C[C@H](OC(=O)[C@H](O)[C@@H](NC(=O)c4ccccc4)c4ccccc4)C(C)=C1C3(C)C)[C@]1(OC(C)=O)CO[C@@H]1C[C@@H]2O` [paclitaxel], which “caspase activation reported by the biosensor” value (caspase-3 [1]) is on record?
**A.** stimulated

**Q.** What about the “change in nuclear morphology” value (L929 cells [2]) of the same compound?
**A.** dose-dependent change in nuclear morphology; also recorded: classic nuclear fragmentation

**Q.** What about the “change in peri-nuclear f-actin content” value (MCF-7 cells) of the same compound?
**A.** highly variable; also recorded: highly variable and not significant

**Q.** What about the “change in peri-nuclear f-actin content” value (L929 cells [3]) of the same compound?
**A.** dose-dependent increases in f-actin content

**Q.** What about the “change in peri-nuclear f-actin content” value (L929 cells [3]; listed as Paclitaxel) of the same compound?
**A.** graded increases in f-actin

**Q.** And the “caspase activation reported by the biosensor” value (caspase-3 [4])?
**A.** stimulated

**Q.** What about the “mitochondrial changes (mass / membrane potential)” value (BHK cells [5]) of the same compound?
**A.** consistent increases in mitochondrial mass

**Q.** What about the “change in nuclear morphology” value (BHK cells [6]) of the same compound?
**A.** consistent increase in nuclear fragmentation with increasing concentrations; also recorded: a more classical response
